Reference: the supplement of paper PMC13380429

Key:
[1] = tested on: A549-ACE2; assay: phospholipidosis EC50; higher = less potent phospholipidosis inducer
[2] = tested on: A549-ACE2 infected with SARS-CoV-2; assay: morphology score (similarity to uninfected cells); higher = more like uninfected cells; details: 24 h
[3] = tested on: Calu-3; assay: drug sensitivity score (DSS) for viability; higher = more toxic; extreme values may be limits of the assay; details: 72 h
[4] = tested on: HepG2; assay: as above; details: 72 h
[5] = tested on: U2OS; assay: as above; details: 72 h
[6] = tested on: Vero E6; assay: as above; details: 72 h
[7] = tested on: A549-ACE2 infected with SARS-CoV-2; assay: cell count relative to DMSO; higher = less toxic; details: 24 h
[8] = tested on: Caco-2; assay: cell viability relative to DMSO; higher = less toxic; details: 72 h
[9] = tested on: Calu-3; assay: as above; details: 72 h
[10] = tested on: HepG2; assay: as above; details: 72 h
[11] = tested on: U2OS; assay: as above; details: 72 h
[12] = tested on: Vero E6; assay: as above; details: 72 h
[13] = tested on: A549-ACE2 infected with SARS-CoV-2; assay: SARS-CoV-2 infection rate relative to DMSO; higher = more infection; details: 24 h
[14] = tested on: A549-ACE2; assay: drug-induced phospholipidosis relative to tamoxifen; higher = more phospholipidosis
[15] = tested on: Caco-2; assay: relative viability EC50 (midpoint between 100% and the lowest measured viability); higher = less toxic; details: 72 h
[16] = tested on: Calu-3; assay: as above; details: 72 h
[17] = tested on: HepG2; assay: as above; details: 72 h
[18] = tested on: U2OS; assay: as above; details: 72 h
[19] = tested on: Vero E6; assay: as above; details: 72 h
[20] = tested on: Caco-2; assay: drug sensitivity score (DSS) for viability; higher = more toxic; extreme values may be limits of the assay; details: 72 h

CNCCC(Oc1ccc(C(F)(F)F)cc1)c1ccccc1 (stereo not given) [fluoxetine]
phospholipidosis EC50 ([1]; 24 h): 7050 nM | phospholipidosis EC50 ([1]; 48 h): 7620 nM | phospholipidosis EC50 ([1]; 72 h): 7610 nM | morphology score ([2]; 0.3 µM): 0.06 | morphology score ([2]; 3 µM): 0.65 | morphology score ([2]; 10 µM): 0.87 | morphology score ([2]; 30 µM): 0.74 | drug sensitivity score [3]: 0.3 | drug sensitivity score [4]: 1.6 | drug sensitivity score [5]: 0 | drug sensitivity score [6]: 0.2

Cc1ccc(NC(=O)Nc2cc(C(F)(F)F)ccc2F)cc1Nc1ccc2c(c1)NC(=O)/C2=C\c1ccc[nH]1 [GNF-5837]
cell count ([7]; 0.3 µM): 100% | cell count ([7]; 3 µM): 105% | cell count ([7]; 10 µM): 115% | cell count ([7]; 30 µM): 96% | cell viability ([8]; 1 nM): 105% | cell viability ([8]; 10 nM): 97.6% | cell viability ([8]; 100 nM): 103% | cell viability ([8]; 1000 nM): 94.5% | cell viability ([8]; 10000 nM): 75.7% | cell viability ([9]; 1 nM): 97.9% | cell viability ([9]; 10 nM): 96.4% | cell viability ([9]; 100 nM): 100% | cell viability ([9]; 1000 nM): 109% | cell viability ([9]; 10000 nM): 96.9% | cell viability ([10]; 1 nM): 92.5% | cell viability ([10]; 10 nM): 98.7% | cell viability ([10]; 100 nM): 98.5% | cell viability ([10]; 1000 nM): 103% | cell viability ([10]; 10000 nM): 39% | cell viability ([11]; 1 nM): 99.6% | cell viability ([11]; 10 nM): 97.2% | cell viability ([11]; 100 nM): 97.2% | cell viability ([11]; 1000 nM): 98.2% | cell viability ([11]; 10000 nM): 85.5% | cell viability ([12]; 1 nM): 107% | cell viability ([12]; 10 nM): 107% | cell viability ([12]; 100 nM): 97% | cell viability ([12]; 1000 nM): 106% | cell viability ([12]; 10000 nM): 83.5% | SARS-CoV-2 infection rate ([13]; 0.3 µM): 103% | SARS-CoV-2 infection rate ([13]; 3 µM): 85% | SARS-CoV-2 infection rate ([13]; 10 µM): 22% | SARS-CoV-2 infection rate ([13]; 30 µM): 44% | phospholipidosis EC50 ([1]; 24 h): 2170 nM | phospholipidosis EC50 ([1]; 48 h): 2340 nM | phospholipidosis EC50 ([1]; 72 h): 2600 nM | drug-induced phospholipidosis ([14]; 0.3 µM, 24 h): 4.96% | drug-induced phospholipidosis ([14]; 0.3 µM, 48 h): 4.94% | drug-induced phospholipidosis ([14]; 0.3 µM, 72 h): 3.67% | drug-induced phospholipidosis ([14]; 0.833333 µM, 24 h): 25.4% | drug-induced phospholipidosis ([14]; 0.833333 µM, 48 h): 9.4% | drug-induced phospholipidosis ([14]; 0.833333 µM, 72 h): 5.1% | drug-induced phospholipidosis ([14]; 3.33333 µM, 24 h): 116% | drug-induced phospholipidosis ([14]; 3.33333 µM, 48 h): 80.5% | drug-induced phospholipidosis ([14]; 3.33333 µM, 72 h): 59.1% | drug-induced phospholipidosis ([14]; 6.66667 µM, 24 h): 132% | drug-induced phospholipidosis ([14]; 6.66667 µM, 48 h): 95.6% | drug-induced phospholipidosis ([14]; 6.66667 µM, 72 h): 70.1% | drug-induced phospholipidosis ([14]; 10 µM, 24 h): 160% | drug-induced phospholipidosis ([14]; 10 µM, 48 h): 96.1% | drug-induced phospholipidosis ([14]; 10 µM, 72 h): 78.2% | drug-induced phospholipidosis ([14]; 30 µM, 24 h): 164% | drug-induced phospholipidosis ([14]; 30 µM, 48 h): 120% | drug-induced phospholipidosis ([14]; 30 µM, 72 h): 91.4% | morphology score ([2]; 0.3 µM): -0.15 | morphology score ([2]; 3 µM): 0.36 | morphology score ([2]; 10 µM): 0.82 | morphology score ([2]; 30 µM): 0.59 | relative viability EC50 [15]: > 10000 nM | relative viability EC50 [16]: > 10000 nM | relative viability EC50 [17]: 3460 nM | relative viability EC50 [18]: > 10000 nM | relative viability EC50 [19]: > 10000 nM | drug sensitivity score [20]: 1.7 | drug sensitivity score [3]: 0 | drug sensitivity score [4]: 3 | drug sensitivity score [5]: 0.4 | drug sensitivity score [6]: 0.2

C[C@H]1CCC/C=C/[C@@H]2C[C@H](O)C[C@H]2[C@H](O)/C=C/C(=O)O1 [brefeldin-A]
cell count ([7]; 0.1 µM): 108% | cell count ([7]; 0.3 µM): 52% | cell count ([7]; 1 µM): 38% | cell count ([7]; 3 µM): 35% | cell viability ([8]; 1 nM): 96.6% | cell viability ([8]; 10 nM): 89.7% | cell viability ([8]; 100 nM): 71.9% | cell viability ([8]; 1000 nM): 26.8% | cell viability ([8]; 10000 nM): 28.8% | cell viability ([9]; 1 nM): 108% | cell viability ([9]; 10 nM): 97.1% | cell viability ([9]; 100 nM): 32.3% | cell viability ([9]; 1000 nM): 15.4% | cell viability ([9]; 10000 nM): 10.7% | cell viability ([10]; 1 nM): 95.6% | cell viability ([10]; 10 nM): 96.6% | cell viability ([10]; 100 nM): 21.9% | cell viability ([10]; 1000 nM): 14.2% | cell viability ([10]; 10000 nM): 14.6% | cell viability ([11]; 1 nM): 99.5% | cell viability ([11]; 10 nM): 99.3% | cell viability ([11]; 100 nM): 22.8% | cell viability ([11]; 1000 nM): 0.2% | cell viability ([11]; 10000 nM): 0.1% | cell viability ([12]; 1 nM): 95.3% | cell viability ([12]; 10 nM): 101% | cell viability ([12]; 100 nM): 28.4% | cell viability ([12]; 1000 nM): 3.5% | cell viability ([12]; 10000 nM): 3.3% | SARS-CoV-2 infection rate ([13]; 0.1 µM): 33% | SARS-CoV-2 infection rate ([13]; 0.3 µM): 42% | SARS-CoV-2 infection rate ([13]; 1 µM): 16% | SARS-CoV-2 infection rate ([13]; 3 µM): 30% | drug-induced phospholipidosis ([14]; 0.3 µM, 24 h): -4.02% | drug-induced phospholipidosis ([14]; 0.833333 µM, 24 h): -5.26% | drug-induced phospholipidosis ([14]; 3.33333 µM, 24 h): -7.24% | drug-induced phospholipidosis ([14]; 10 µM, 24 h): -7% | morphology score ([2]; 0.1 µM): 0.73 | morphology score ([2]; 0.3 µM): 0.14 | morphology score ([2]; 1 µM): 0.32 | morphology score ([2]; 3 µM): 0.26 | relative viability EC50 [15]: 130 nM | relative viability EC50 [16]: 55.5 nM | relative viability EC50 [17]: 37.9 nM | relative viability EC50 [18]: 61.2 nM | relative viability EC50 [19]: 66 nM | drug sensitivity score [20]: 16.3 | drug sensitivity score [3]: 24.5 | drug sensitivity score [4]: 25.6 | drug sensitivity score [5]: 26.8 | drug sensitivity score [6]: 25.7
